Experimental data reported in paper PMC7769561, “Antileishmanial activity of synthetic analogs of the naturally occurring quinolone alkaloid N-methyl-8-methoxyflindersin” (PLoS ONE, 2020).
Values joined by “and” are separate entries in the source; they are usually repeats but may differ in a detail not shown here. Equal values may be shown once.

Tests used:
[1] = test system: L. (V.) panamensis promastigotes; experiment: Antileishmanial activity in L. (V.) panamensis promastigotes (resazurin, 72 h); assay type: cell-based, Leishmania (Viannia) panamensis; conditions: L. (V.) panamensis promastigotes, ± SD
Description: They were treated with quinoline alkaloid–like compounds at a concentration of 100, 10, 1, 0.1, and 0.01 μg/mL for 72 h at 26°C. Next, we determined antileishmanial activity using the resazurin method (Sigma-Aldrich). Promastigotes treated with amphotericin B (Sigma-Aldrich) and pentamidine (Sanofi-Aventis, Gentilly, France) were used as parasite death (positive) controls. Results were expressed as the medial effective concentration (EC50) using Prism GraphPad software for nonlinear regression analysis (https://www.graphpad.com/scientific-software/prism/).
All assays required at least three independently duplicated experiments. We determined cytotoxicity against hMDMs and effectivity in L. (V) panamensis promastigotes according to each treatment’s mortality (compound and concentration) using Eq 1, where the control mean fluorescence intensity (MFI) was 100% viability: Validityinhibition(%)=100−[MIFexposedcells/MIFunexposedcells×100] (1)
(§1) We used GraphPad Prism nonlinear regression analysis to estimate the percentage mortality with regard to CC50 and EC50. […] The antileishmanial activity with regard to promastigotes was classified as active according to Eq 2: Active=EC50<[LC50/2], (2) where LC50 is the median lethal concentration. We also used GraphPad Prism nonlinear regression analysis to determine the intracellular antileishmanial activity (concentration vs. response), depending on the infection (number of infected cells) and parasite burden (number of parasites/cell) obtained in experimental conditions. Parasite inhibition was estimated using Eq 3, where the plate MFI is 100% parasites: Infectioninhibition(%)=100−[(MIFexposedparasites/MIFunexposedparasites×100)] (3)

[2] = test system: L. (V.) panamensis intracellular amastigotes; experiment: Antileishmanial activity in L. (V.) panamensis intracellular amastigotes in hMDMs; assay type: cell-based, Leishmania (Viannia) panamensis
Description: Next, 100 μL of the suspension was cultured in 96-well plates and infected with L. (V.) panamensis promastigotes (HMOM/COL/87/UA-140) at a 10:1 parasite:cell ratio. We incubated the plates in a 5% CO2 atmosphere for 4 h at 35°C. After incubation, we removed noninternalized parasites by washing the cells with 0.9% NaCl saline solution (Baxter International, Deerfield, IL, USA). The cells were incubated again for 24 h and then treated with each quinoline alkaloid–like compound at a concentration of 100, 10, 1, 0.1, and 0.01 μg/mL in a 5% CO2 atmosphere for 72 h at 36°C. Next, we quantified the percentage of infected cells using fluorescence microscopy, as previously described by Pérez-Cordero in 2011 [23], and quantified the parasite load (amount of intracellular promastigotes and amastigotes per cell) using Giemsa staining and flow cytometry (Cytomics FC 500 MPL; Beckman Coulter, Brea, CA, USA). […] Results were expressed as EC50 using Prism GraphPad software’s probit nonlinear regression analysis (https://www.graphpad.com/scientific-software/prism/).
as §1
The percentage inhibition was used to calculate EC50 by nonlinear regression analysis (fluorescence microscopy), while the parasite burden was evaluated as the percentage of intracellular promastigotes and amastigotes in 100 infected cells (Giemsa staining). […] The selectivity index (SI) was estimated using the following formula: SI=CC50/EC50

[3] = test system: L. (V.) panamensis (MHOM/COL/87/UA140-EGFP); experiment: Therapeutic in vivo response in hamsters with experimental cutaneous leishmaniasis; design: species or system golden hamster (Mesocrisetus auratus)
Description: We used a golden hamster (Mesocrisetus auratus) model to evaluate the therapeutic response of synthetic alkaloid compounds 2 and 8. Male and female 6-week-old hamsters with a mean live weight (LW) of 120 g were infected by a dorsal intradermic injection of L. (V.) panamensis (MHOM/COL/87/UA140-EGFP) promastigotes. After the infected hamsters developed ulcers, they were randomly divided into three groups (n = 6 each) and treated topically with 1% ointment formulated from compounds 2 and 8.
(§2) The hamsters were monitored every 4 weeks to assess their appearance and weight and the lesion size. We categorized each compound’s effectiveness pre- and posttreatment as follows: (i) cure (complete disappearance of lesions), (ii) improvement (>10% reduced lesion area), and (iii) therapeutic failure or nonresponse (increased lesion size). The health status was monitored weekly for 3 months (12 weeks) posttreatment. After 3 months, the hamsters were euthanized in a CO2 chamber. We performed histopathological analysis after necropsy of the affected tissues and organs. In addition, we evaluated treatment cytotoxicity using LW monitoring and biochemical parameters (alanine aminotransferase [ALT], creatinine, and blood urea nitrogen [BUN]) pretreatment and 45 days after ointment administration.
The in vivo efficacy of compounds 1, 2, and 8 was expressed as a percentage cure, improvement, or nonresponse compared to the beginning of treatment. Efficacy was evaluated in vivo to compare percentages, the frequency of change, and treatment cytotoxicity in the hamster model. We used GraphPad Prism to determine ROS and NO production and the apoptotic cell percentage. One- or two-way analysis of variance (ANOVA; response–time kinetics) was used to compare treatments after confirming normal data distribution. P < 0.05 was considered statistically significant by comparing untreated cells (experiments on untreated hMDMs) with infected cells (experiments on untreated and treated hMDMs).

[4] = Treatment toxicity in hamsters (live weight, ALT, creatinine, BUN); assay type: in vivo, golden hamster (Mesocrisetus auratus); conditions: topical 1% ointment
Description: as §2

[5] = test system: L. (V.) panamensis intracellular amastigotes; experiment: Transmission electron microscopy of L. (V.) panamensis intracellular amastigotes in hMDMs; assay type: cell-based, Leishmania (Viannia) panamensis; design: Nucleus (ultrastructural alteration grade) / Vacuoles (ultrastructural alteration grade): key: -: no alteration/absence; +: low alteration/low presence; ++: alteration/moderate presence; +++: serious disturbance/abundant presence; conditions: compound at EC50, 72 h, TEM; as to Cell membrane (ultrastructural alteration grade): key: -: no alteration/absence; +: low alteration/low presence; ++: alteration/moderate presence; +++: serious disturbance/abundant presence; as to Flagellum (flagellar/axonema pocket) (grade): key: -: no alteration/absence; +: low alteration/low presence; ++: alteration/moderate presence; +++: serious disturbance/abundant presence; as to LB (lipid bodies, grade): key: -: no alteration/absence; +: low alteration/low presence; ++: alteration/moderate presence; +++: serious disturbance/abundant presence; as to Mitochondria/Kinetoplasts (ultrastructural alteration grade): key: -: no alteration/absence; +: low alteration/low presence; ++: alteration/moderate presence; +++: serious disturbance/abundant presence
Description: This procedure involved including fresh resin and 100–200-nm-wide ultrafine cuts observed by TEM (100X–10.000X) (HITACHI-HU-12; Hitachi, Tokyo, Japan).

[6] = amastigotes in hMDMs, 72 h, ± SD
[7] = hamsters, topical 1% ointment, 3 months posttreatment, n = 6

1,2,3,4-tetrahydro(benzo)-3-quinolin-ol [Compound 2]
EC50 Intracellular promastigotes [1]: 3.4 ± 1.1 mg/L
EC50 ([1]; read-out: EC50 Intracellular promastigotes (converted)): 17 µM
SI (selectivity index = CC50/EC50) ([2]; CC50 hMDMs / EC50 intracellular amastigotes): 3.64 and > 3
EC50 [2, 6]: 26 µM
EC50 Intracellular amastigotes [2, 6]: 5.2 ± 0.9 mg/L
Antileishmanial activity class ([2]; intracellular amastigotes, class by EC50): high (high if EC50 < 25 μg/mL)
Histopathologic analysis of the skin, cured hamsters ([3]; hamsters cured by treatment, hematoxylin/eosin): moderate orthokeratotic hyperkeratosis and low mononuclear leukocyte infiltration
Histopathologic analysis of the skin, hamsters showing improvement ([3]; hamsters showing improvement, hematoxylin/eosin): severe leukocyte infiltratation and abundant L. (V.) panamensis being phagocytosed by hMDMs
Lesion size during treatment ([3]; hamsters, topical 1% ointment): significantly reduced lesions
Improvement (reduced lesion size), percentage of the experimental group [3, 7]: 66.6%
Total cure (healing), percentage of the experimental group [3, 7]: 33.3%
Cytotoxicity-related clinical manifestations [4]: No cytotoxicity-related clinical manifestations
Live weight posttreatment [4]: no evident changes during treatment
Cell membrane (ultrastructural alteration grade) [5]: -
Flagellum (flagellar/axonema pocket) (description) [5]: Multiple organelles
Flagellum (flagellar/axonema pocket) (grade) [5]: ++
LB (lipid bodies, grade) [5]: +++
Mitochondria/Kinetoplasts (description) [5]: Multiple organelles
Mitochondria/Kinetoplasts (ultrastructural alteration grade) [5]: ++
Nucleus (description) [5]: Abnormal distribution of chromatine
Nucleus (ultrastructural alteration grade) [5]: ++
PV (description) [5]: Multiple
PV (parasitophorous vacuoles, grade) [5]: +
Vacuoles (description) [5]: Double membrane (autophagic-digestives)
Vacuoles (ultrastructural alteration grade) [5]: +++
